From patent US7160907B2, “Pleuromutilin derivatives” (SmithKline Beecham P.L.C., priority 2000, dated 2007)

Legend:
Assay type in all cases: cell-based
[1] = tested on: Haemophilus influenzae Q1; experiment: conventional MIC assay, Haemophilus influenzae Q1; conditions: against Haemophilus influenzae Q1
Experimental: (§1) Compounds of the present invention were assessed for anti-bacterial activity in a conventional MIC assay against a range of pathogenic organisms.

[2] = tested on: Streptococcus pneumoniae 1629; experiment: conventional MIC assay, Streptococcus pneumoniae 1629; conditions: against Streptococcus pneumoniae 1629
Experimental: as §1

[3] = tested on: Moraxella catarrhalis 1502; experiment: conventional MIC assay, Moraxella catarrhalis 1502; conditions: against Moraxella catarrhalis 1502
Experimental: as §1

[4] = tested on: Staphylococcus aureus Oxford; experiment: conventional MIC assay, Staphylococcus aureus Oxford; conditions: against Staphylococcus aureus Oxford
Experimental: as §1

Row | MIC [1] [µg/mL] | MIC [2] [µg/mL] | MIC [3] [µg/mL] | MIC [4] [µg/mL] | SMILES
1 | ≤ 4 | ≤ 4 | ≤ 4 | ≤ 4 | C=C[C@]1(C)C[C@@H](OC(=O)NC(=O)O[C@H]2COC[C@H]2OC(N)=O)[C@]2(C)[C@H](C)CC[C@]3(CCC(=O)[C@H]32)[C@@H](C)[C@@H]1O (racemic) [Example 118, Mutilin 14-[N-(cis-4-carbamoyloxytetrahydrofuran-3-yloxycarbonyl)]carbamate]
2 | ≤ 4 | ≤ 4 | ≤ 4 | ≤ 4 | C=C[C@]1(C)C[C@@H](OC(=O)NC(=O)OCc2ncc(C(N)=O)c(N)n2)[C@]2(C)[C@H](C)CC[C@]3(CCC(=O)[C@H]32)[C@@H](C)[C@@H]1O [Example 116, Mutilin 14-[N-(4-amino-5-carboxamidopyrimidin-2-ylmethoxycarbonyl)]carbamate]
3 | ≤ 4 | ≤ 4 | ≤ 4 | ≤ 4 | C=C[C@]1(C)C[C@@H](OC(=O)NC(=O)OCS(C)(=O)=O)[C@]2(C)[C@H](C)CC[C@]3(CCC(=O)[C@H]32)[C@@H](C)[C@@H]1O [Example 117, Mutilin 14-[N-(methylsulfonylmethoxycarbonyl)]carbamate]
4 | ≤ 4 | ≤ 4 | ≤ 4 | ≤ 4 | C=C[C@]1(C)C[C@@H](OC(=O)NC(=O)OCc2cnc(N)c(C(N)=O)n2)[C@]2(C)[C@H](C)CC[C@]3(CCC(=O)[C@H]32)[C@@H](C)[C@@H]1O [Example 119]
5 | ≤ 4 | ≤ 4 | ≤ 4 | ≤ 4 | C=C[C@]1(C)C[C@@H](OC(=O)NC(=O)OCCN2CCN(C=O)CC2)[C@]2(C)[C@H](C)CC[C@]3(CCC(=O)[C@H]32)[C@@H](C)[C@@H]1O [Example 120, Mutilin 14-[N-(2-(4-formylpiperazin-1-yl)ethyloxycarbonyl)]carbamate]
6 | ≤ 4 | ≤ 4 | ≤ 4 | ≤ 4 | C=C[C@]1(C)C[C@@H](OC(=O)NC(=O)OCCN2CCN(S(N)(=O)=O)CC2)[C@]2(C)[C@H](C)CC[C@]3(CCC(=O)[C@H]32)[C@@H](C)[C@@H]1O [Example 121]
7 | ≤ 4 | ≤ 4 | ≤ 4 | ≤ 4 | C=C[C@]1(C)C[C@@H](OC(=O)NC(=O)O[C@@H]2CO[C@H]3[C@@H]2OC[C@@H]3N)[C@]2(C)[C@H](C)CC[C@]3(CCC(=O)[C@H]32)[C@@H](C)[C@@H]1O [Example 122, Mutilin 14-[N-(((3R,3aR,6S,6aR)-6-amino-hexahydrofuro[3,2-b]furan-3-yl)oxycarbonyl)]carbamate]
8 | ≤ 4 | ≤ 4 | ≤ 4 | ≤ 4 | C=C[C@]1(C)C[C@@H](OC(=O)NC(=O)O[C@@H]2CCN(CC#N)C2)[C@]2(C)[C@H](C)CC[C@]3(CCC(=O)[C@H]32)[C@@H](C)[C@@H]1O [Example 123, Mutilin 14-[N-(1-cyanomethylpyrrolidin-3-(R)-yloxycarbonyl)]carbamate]
9 | ≤ 4 | ≤ 4 | ≤ 4 | ≤ 4 | C=C[C@]1(C)C[C@@H](OC(=O)NC(=O)O[C@H]2CN[C@H](C#N)C2)[C@]2(C)[C@H](C)CC[C@]3(CCC(=O)[C@H]32)[C@@H](C)[C@@H]1O [Example 126, Mutilin 14-[N-(5-(S)-cyanopyrrolidin-3-(R)-yloxycarbonyl)]carbamate]
10 | ≤ 4 | ≤ 4 | ≤ 4 | ≤ 4 | C=C[C@]1(C)C[C@@H](OC(=O)NC(=O)OC2CN(CC(N)=O)C2)[C@]2(C)[C@H](C)CC[C@]3(CCC(=O)[C@H]32)[C@@H](C)[C@@H]1O [Example 128, Mutilin 14-[N-(1-carbamoylmethylazetidin-3-yloxycarbonyl)]-carbamate]
11 | ≤ 4 | ≤ 4 | ≤ 4 | ≤ 4 | C=C[C@]1(C)C[C@@H](OC(=O)NC(=O)OC2CN(CC#N)C2)[C@]2(C)[C@H](C)CC[C@]3(CCC(=O)[C@H]32)[C@@H](C)[C@@H]1O [Example 129, Mutilin 14-[N-(1-cyanomethylazetidin-3-yloxycarbonyl)]-carbamate]
12 | ≤ 4 | ≤ 4 | ≤ 4 | ≤ 4 | C=C[C@]1(C)C[C@@H](OC(=O)NC(=O)OC2CN(N)C2)[C@]2(C)[C@H](C)CC[C@]3(CCC(=O)[C@H]32)[C@@H](C)[C@@H]1O [Example 130, Mutilin 14-[N-(1-aminoazetidin-3-yloxycarbonyl)]-carbamate]
